In this experiment the target is T1, Human-Pankreas-α-Amylase (HPA) (Homo sapiens, UniProt P04746).
T1 sequence (P04746 16-511): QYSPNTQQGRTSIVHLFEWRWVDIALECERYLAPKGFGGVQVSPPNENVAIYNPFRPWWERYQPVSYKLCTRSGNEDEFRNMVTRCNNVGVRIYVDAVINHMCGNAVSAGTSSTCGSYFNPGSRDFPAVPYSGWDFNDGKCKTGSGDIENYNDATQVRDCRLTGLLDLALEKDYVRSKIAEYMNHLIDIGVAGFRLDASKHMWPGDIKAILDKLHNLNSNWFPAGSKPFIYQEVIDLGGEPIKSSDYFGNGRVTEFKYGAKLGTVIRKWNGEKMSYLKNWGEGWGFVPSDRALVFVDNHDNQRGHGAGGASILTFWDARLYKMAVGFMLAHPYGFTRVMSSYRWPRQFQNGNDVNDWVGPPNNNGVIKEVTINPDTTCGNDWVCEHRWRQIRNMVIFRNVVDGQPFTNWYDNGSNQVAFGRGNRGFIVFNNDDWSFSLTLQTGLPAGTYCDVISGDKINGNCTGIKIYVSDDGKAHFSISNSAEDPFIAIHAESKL
Briefly: direct α-amylase determination with synthetic substrates, without auxiliary enzymes (absorbance change per minute). In kind it is biochemical. Conditions: for 400 mMol/l KSCN HPA [ΔE/min]: activator 400 mMol/l KSCN, read at the wavelength given per substrate (645 or 578 nm); for 400 mmol/l KSCN HPA relativer Wert [ΔE/min]: relative value (Beispiel 1 = 1). From the text: Es wurde mit den in der folgenden Tabelle und in Fig. 1 aufgeführten Substraten, die Amylaseaktivität von Human-Pankreas-α-Amylase (HPA) und Human-Speichel-α-Amylase (HSA) untersucht. Die folgenden Reagenzien wurden verwendet:
Substrat (wie in der Tabelle angegeben) 49,3 mMol/l
Reagenz 1 enthält gegebenenfalls noch Aktivator, wie in Tabelle angegeben, sowie - als Hemmstoffe für die Speichel-α-Amylase- von den Zellinien NCACC 84122003 (MAK I) und NCACC 84111301 (MAK II) produzierte Antikörper. Zur Durchführung der Bestimmung wird 1,00 ml Reagenz 1 mit 0,02 ml der Probe gemischt und auf 37°C temperiert. Anschließend wird 0,10 ml Reagenz 2 zugegeben, gemischt und nach 1,2 und 3 Minuten die Extinktion bei der jeweiligen Meßwellenlänge (s. Tabelle) abgelesen. Es wird der Mittelwert der Extinktionsdifferenz/Minute gebildet.
Die Endkonzentrationen im Testansatz betragen:
Als Probe wird Humanpankreas-Amylase (HPA) verwendet. Die Messung erfolgt bei 37°C bei der jeweils angegebenen Meßwellenlänge. Die Ergebnisse sind der Tabelle zu entnehmen. Tabelle
Verwendung der gemäß Beispiel 4 und Beispiel 5 hergestellten Substanzen als Substrate zur direkten α-Amylase-Bestimmung.
Es wird analog zu Beispiel 2 vorgegangen.

Setting [1] is: MES buffer pH 6,0, 37°C, substrate 4,44 mmol/l.
[2] abbreviates: measured at pH 8,0, 595 or 573 nm.

Data on 5 compounds can be found in patent publication EP0510620A1, “Indophenol substituted oligomaltosides as substrates for alpha-amylase” (BOEHRINGER MANNHEIM GMBH, priority 1991, dated 1992).

Marks after values point to notes of the source that are not given here.

For the compound `O=C1C(Cl)=CC(=Nc2ccc(O[C@H]3O[C@H](CO)[C@@H](O[C@H]4O[C@H](CO)[C@@H](O[C@H]5O[C@H](CO)[C@@H](O)[C@H](O)[C@H]5O)[C@H](O)[C@H]4O)[C@H](O)[C@H]3O)cc2)C=C1Cl` [2,6-Dichlor-indophenylα-maltotriosid, reference compound], under setting [1], the “400 mMol/l KSCN HPA [ΔE/min]” value is reported as 0 ΔE/min.

Turning to `CC1=CC(=Nc2ccc(O[C@H]3O[C@H](CO)[C@@H](O[C@H]4O[C@H](CO)[C@@H](O[C@H]5O[C@H](CO)[C@@H](O)[C@H](O)[C@H]5O)[C@H](O)[C@H]4O)[C@H](O)[C@H]3O)cc2)C=C(C)C1=O` [2,6-Dimethyl-indophenylα-maltotriosid, reference compound], the “HPA [ΔE/min]” value (with 150 mmol/l NaN₃ instead of KSCN, MES buffer pH 6,0, 37°C, substrate 4,44 mmol/l, 578 nm) is recorded as 0* ΔE/min.

With `O=C1C(Cl)=CC(=Nc2ccc(O[C@H]3O[C@H](CO)[C@@H](O[C@H]4O[C@H](CO)[C@@H](O[C@H]5O[C@H](CO)[C@@H](O)[C@H](O)[C@H]5O)[C@H](O)[C@H]4O)[C@H](O)[C@H]3O)c(Cl)c2)C=C1Cl` [Beispiel 1, 2',2,6-Trichlor-indophenyl-α-maltotriosid], the “400 mMol/l KSCN HPA [ΔE/min]” value under setting [1] was 0,063 ΔE/min. Also, the “Spaltung durch α-Amylase als direktes Substrat” value (in words, in the absence of auxiliary enzymes) is “hervorragend durch α-Amylase in Abwesenheit von Hilfsenzymen spaltbar”. Moreover, the “400 mmol/l KSCN HPA relativer Wert [ΔE/min]” value (analogous to Beispiel 2 (pH 6,0, 37°C), 645 nm) is listed as 1 ΔE/min.

As for `CC1=CC(=Nc2ccc(O[C@H]3O[C@H](CO)[C@@H](O[C@H]4O[C@H](CO)[C@@H](O[C@H]5O[C@H](CO)[C@@H](O)[C@H](O)[C@H]5O)[C@H](O)[C@H]4O)[C@H](O)[C@H]3O)c(Cl)c2)C=CC1=O` [Beispiel 4, 2'-Chlor-2-methyl-indophenyl-α-maltotriosid], the “400 mmol/l KSCN HPA relativer Wert [ΔE/min]” value under setting [2] is 0,35* ΔE/min.

Regarding `CC1=CC(=Nc2ccc(O[C@H]3O[C@H](CO)[C@@H](O[C@H]4O[C@H](CO)[C@@H](O[C@H]5O[C@H](CO)[C@@H](O)[C@H](O)[C@H]5O)[C@H](O)[C@H]4O)[C@H](O)[C@H]3O)c(Cl)c2)C=C(C)C1=O` [Beispiel 5, 2'-Chlor-2,6-dimethyl-indophenyl-α-maltotriosid], the “400 mmol/l KSCN HPA relativer Wert [ΔE/min]” value under setting [2] was 0,27* ΔE/min.
